Results from publication PMC12090182, “Repurposing of the RIPK1-Selective Benzo[1,4]oxazepin-4-one Scaffold for the Development of a Type III LIMK1/2 Inhibitor” (ACS Chemical Biology, 2025).

Experiments:
Type in all cases: cell-based
Settings in all cases: HEK-293T; 1 μM inhibitor, HEK293T cells
CDK15 = CDK15 (Homo sapiens, UniProt Q96Q40)
Procedure: (§1) For plate preparation, a transfection mix was prepared in white 384-well small-volume plates (Greiner, cat. no. 784075) by preplating 3 μL of 20 μL/mL FuGene HD (Promega, cat. no. E2311), diluted in an Opti-MEM medium (Gibco, cat. no. 11058-021). One μL of DNA from both DNA vector source plates of the K192 kit was added using an Echo 550 acoustic dispenser (Beckman Coulter). The mix was incubated for 30 min, and 6 μL of HEK293T cells in an Opti-MEM medium was added. The proteins were allowed to express for 20 h. After expression, Tracer K10 was added using the concentrations recommended in the K192 technical manual and a 1 μM inhibitor was added to every second well. […] Five μL of substrate solution was added to every well, and filtered luminescence was measured on a PHERAstar plate reader (BMG Labtech) equipped with a luminescence filter pair (450 nm BP filter (donor) and a 610 nm LP filter (acceptor)). For every kinase, occupancy was calculated and plotted using GraphPad Prism 10 (Table S5).

CDK16 = CDK16 (Homo sapiens, UniProt Q00536)
Procedure: as §1

CDK6 = CDK6 (Homo sapiens, UniProt Q00534)
Procedure: as §1

CDKL1 = CDKL1 (Homo sapiens, UniProt Q00532)
Procedure: as §1

CDKL2 = CDKL2 (Homo sapiens, UniProt Q92772)
Procedure: as §1

CSNK2A1 = CSNK2A1 (Homo sapiens, UniProt P68400)
Chain of CSNK2A1 (P68400 whole entry): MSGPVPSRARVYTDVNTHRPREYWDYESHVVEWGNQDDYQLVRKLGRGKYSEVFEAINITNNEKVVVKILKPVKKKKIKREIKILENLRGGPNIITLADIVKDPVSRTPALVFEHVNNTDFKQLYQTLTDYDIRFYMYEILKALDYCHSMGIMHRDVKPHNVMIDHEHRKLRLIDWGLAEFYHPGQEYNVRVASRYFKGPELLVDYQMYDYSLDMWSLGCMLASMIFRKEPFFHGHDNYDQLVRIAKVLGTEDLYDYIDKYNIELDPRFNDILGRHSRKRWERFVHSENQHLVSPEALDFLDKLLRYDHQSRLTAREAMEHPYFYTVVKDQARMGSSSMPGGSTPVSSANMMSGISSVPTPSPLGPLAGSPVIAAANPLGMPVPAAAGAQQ
Procedure: as §1

CSNK2A2 = CSNK2A2 (Homo sapiens, UniProt P19784)
Procedure: as §1

DCLK3 = DCLK3 (Homo sapiens, UniProt Q9C098)
Procedure: as §1

DYRK1A = DYRK1A (Homo sapiens, UniProt Q13627)
Procedure: as §1

EPHA1 = EPHA1 (Homo sapiens, UniProt P21709)
Procedure: as §1

FGFR4 = FGFR4 (Homo sapiens, UniProt P22455)
Procedure: as §1

GAK = GAK (Homo sapiens, UniProt O14976)
Procedure: as §1

IRAK3 = IRAK3 (Homo sapiens, UniProt Q9Y616)
Procedure: as §1

MAP3K19 = MAP3K19 (Homo sapiens, UniProt Q56UN5)
Procedure: as §1

MAP3K2 = MAP3K2 (Homo sapiens, UniProt Q9Y2U5)
Procedure: as §1

MAP3K3 = MAP3K3 (Homo sapiens, UniProt Q99759)
Procedure: as §1

MAP4K2 = MAP4K2 (Homo sapiens, UniProt Q12851)
Procedure: as §1

MAP4K3 = MAP4K3 (Homo sapiens, UniProt Q8IVH8)
Procedure: as §1

MAP4K5 = MAP4K5 (Homo sapiens, UniProt Q9Y4K4)
Chain of MAP4K5 (Q9Y4K4 whole entry): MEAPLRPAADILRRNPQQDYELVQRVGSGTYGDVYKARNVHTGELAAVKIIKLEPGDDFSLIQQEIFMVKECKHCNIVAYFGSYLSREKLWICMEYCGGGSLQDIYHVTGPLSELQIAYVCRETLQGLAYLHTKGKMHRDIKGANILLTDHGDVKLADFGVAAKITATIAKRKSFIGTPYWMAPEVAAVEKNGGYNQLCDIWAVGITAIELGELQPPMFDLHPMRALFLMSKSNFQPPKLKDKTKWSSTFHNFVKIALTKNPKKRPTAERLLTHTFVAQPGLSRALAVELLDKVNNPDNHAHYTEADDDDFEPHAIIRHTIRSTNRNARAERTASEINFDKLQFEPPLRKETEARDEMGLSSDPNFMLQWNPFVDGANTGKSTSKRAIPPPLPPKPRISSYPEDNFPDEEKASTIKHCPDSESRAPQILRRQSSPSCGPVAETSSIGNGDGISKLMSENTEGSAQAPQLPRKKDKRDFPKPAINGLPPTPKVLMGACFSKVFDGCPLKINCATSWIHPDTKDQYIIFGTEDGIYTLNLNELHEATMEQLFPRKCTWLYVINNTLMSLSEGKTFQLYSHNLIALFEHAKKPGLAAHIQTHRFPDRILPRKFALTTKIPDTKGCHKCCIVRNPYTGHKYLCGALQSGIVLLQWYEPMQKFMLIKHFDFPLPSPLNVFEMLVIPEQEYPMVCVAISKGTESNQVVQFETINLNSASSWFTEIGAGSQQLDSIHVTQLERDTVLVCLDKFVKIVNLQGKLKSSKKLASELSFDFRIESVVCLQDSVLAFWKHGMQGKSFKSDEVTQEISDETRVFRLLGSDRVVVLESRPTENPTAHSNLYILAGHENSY
Procedure: as §1

MAPK11 = MAPK11 (Homo sapiens, UniProt Q15759)
Chain of MAPK11 (Q15759 whole entry): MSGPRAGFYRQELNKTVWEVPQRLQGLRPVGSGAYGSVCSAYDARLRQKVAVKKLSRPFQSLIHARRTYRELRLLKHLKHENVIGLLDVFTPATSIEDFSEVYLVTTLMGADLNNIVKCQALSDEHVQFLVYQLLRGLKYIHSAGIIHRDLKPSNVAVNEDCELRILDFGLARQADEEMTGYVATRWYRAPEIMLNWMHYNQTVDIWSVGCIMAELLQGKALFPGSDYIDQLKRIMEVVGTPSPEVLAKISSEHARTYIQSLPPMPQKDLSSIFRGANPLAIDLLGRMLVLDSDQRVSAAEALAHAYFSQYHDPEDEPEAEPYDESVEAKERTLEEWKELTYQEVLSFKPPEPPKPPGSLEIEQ
Procedure: as §1

MAPK14 = MAPK14 (Homo sapiens, UniProt Q16539)
Chain of MAPK14 (Q16539 whole entry): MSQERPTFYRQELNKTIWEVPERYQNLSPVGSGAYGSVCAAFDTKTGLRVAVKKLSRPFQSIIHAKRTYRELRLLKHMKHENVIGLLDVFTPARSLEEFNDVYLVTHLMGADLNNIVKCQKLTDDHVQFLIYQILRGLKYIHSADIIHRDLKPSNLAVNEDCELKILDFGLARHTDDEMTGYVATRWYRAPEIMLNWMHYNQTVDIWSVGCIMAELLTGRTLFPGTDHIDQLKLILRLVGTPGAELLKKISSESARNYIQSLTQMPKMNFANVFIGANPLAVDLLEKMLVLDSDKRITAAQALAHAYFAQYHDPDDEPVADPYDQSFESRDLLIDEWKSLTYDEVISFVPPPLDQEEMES
Procedure: as §1

MAPK9 = MAPK9 (Homo sapiens, UniProt P45984)
Procedure: as §1

MAST3 = MAST3 (Homo sapiens, UniProt O60307)
Chain of MAST3 (O60307 whole entry): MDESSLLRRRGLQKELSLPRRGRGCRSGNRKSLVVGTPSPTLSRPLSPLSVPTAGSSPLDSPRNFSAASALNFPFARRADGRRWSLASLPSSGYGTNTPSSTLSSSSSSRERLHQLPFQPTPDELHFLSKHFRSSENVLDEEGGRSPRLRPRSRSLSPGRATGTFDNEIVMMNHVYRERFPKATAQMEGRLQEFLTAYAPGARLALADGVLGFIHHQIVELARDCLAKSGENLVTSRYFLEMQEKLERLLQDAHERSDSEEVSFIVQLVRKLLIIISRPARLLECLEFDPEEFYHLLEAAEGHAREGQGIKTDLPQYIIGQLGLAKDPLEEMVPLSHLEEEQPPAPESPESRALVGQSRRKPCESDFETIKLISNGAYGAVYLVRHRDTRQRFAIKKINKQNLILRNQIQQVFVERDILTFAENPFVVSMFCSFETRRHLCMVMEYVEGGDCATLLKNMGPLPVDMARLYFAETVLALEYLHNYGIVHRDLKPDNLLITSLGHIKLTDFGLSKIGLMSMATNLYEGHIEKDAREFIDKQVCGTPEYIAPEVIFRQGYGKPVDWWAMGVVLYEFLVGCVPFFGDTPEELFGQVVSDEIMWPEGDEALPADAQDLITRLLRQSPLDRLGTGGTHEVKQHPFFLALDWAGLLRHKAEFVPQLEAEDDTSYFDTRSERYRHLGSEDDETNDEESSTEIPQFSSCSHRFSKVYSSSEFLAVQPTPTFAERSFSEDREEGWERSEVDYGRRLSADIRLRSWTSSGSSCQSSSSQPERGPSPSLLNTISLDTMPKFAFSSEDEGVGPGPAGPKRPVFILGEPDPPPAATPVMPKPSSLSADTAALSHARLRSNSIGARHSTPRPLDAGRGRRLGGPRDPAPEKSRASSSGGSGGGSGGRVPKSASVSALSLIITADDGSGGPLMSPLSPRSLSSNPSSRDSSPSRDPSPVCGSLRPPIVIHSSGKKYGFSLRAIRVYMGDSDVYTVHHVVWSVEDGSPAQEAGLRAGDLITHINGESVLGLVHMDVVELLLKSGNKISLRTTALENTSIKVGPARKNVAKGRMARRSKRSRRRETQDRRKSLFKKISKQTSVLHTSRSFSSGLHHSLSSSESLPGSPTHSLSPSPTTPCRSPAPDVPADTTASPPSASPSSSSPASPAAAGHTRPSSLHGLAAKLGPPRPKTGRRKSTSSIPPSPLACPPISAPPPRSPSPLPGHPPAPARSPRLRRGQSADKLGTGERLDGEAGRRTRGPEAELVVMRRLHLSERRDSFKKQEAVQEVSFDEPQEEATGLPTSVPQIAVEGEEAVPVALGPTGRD
Procedure: as §1

MERTK = MERTK (Homo sapiens, UniProt Q12866)
Procedure: as §1

MET = MET (Homo sapiens, UniProt P08581)
Procedure: as §1

MUSK = MUSK (Homo sapiens, UniProt O15146)
Procedure: as §1

NTRK2 = NTRK2 (Homo sapiens, UniProt Q16620)
Procedure: as §1

NUAK1 = NUAK1 (Homo sapiens, UniProt O60285)
Procedure: as §1

PRKAA2 = PRKAA2 (Homo sapiens, UniProt P54646)
Procedure: as §1

PRKACA = PRKACA (Homo sapiens, UniProt P17612)
Procedure: as §1

PRKX = PRKX (Homo sapiens, UniProt P51817)
Chain of PRKX (P51817 whole entry): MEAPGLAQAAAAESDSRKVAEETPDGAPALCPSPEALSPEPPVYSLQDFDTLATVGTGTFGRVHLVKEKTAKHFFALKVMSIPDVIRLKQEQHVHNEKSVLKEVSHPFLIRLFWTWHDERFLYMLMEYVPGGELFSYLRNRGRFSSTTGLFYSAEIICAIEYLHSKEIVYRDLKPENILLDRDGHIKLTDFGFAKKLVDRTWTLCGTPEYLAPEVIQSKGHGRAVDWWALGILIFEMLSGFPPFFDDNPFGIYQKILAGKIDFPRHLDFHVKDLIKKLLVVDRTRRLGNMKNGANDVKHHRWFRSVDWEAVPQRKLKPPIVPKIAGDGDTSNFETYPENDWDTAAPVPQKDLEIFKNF
Procedure: as §1

PTK6 = PTK6 (Homo sapiens, UniProt Q13882)
Procedure: as §1

STK32B = STK32B (Homo sapiens, UniProt Q9NY57)
Procedure: as §1

STK33 = STK33 (Homo sapiens, UniProt Q9BYT3)
Chain of STK33 (Q9BYT3 whole entry): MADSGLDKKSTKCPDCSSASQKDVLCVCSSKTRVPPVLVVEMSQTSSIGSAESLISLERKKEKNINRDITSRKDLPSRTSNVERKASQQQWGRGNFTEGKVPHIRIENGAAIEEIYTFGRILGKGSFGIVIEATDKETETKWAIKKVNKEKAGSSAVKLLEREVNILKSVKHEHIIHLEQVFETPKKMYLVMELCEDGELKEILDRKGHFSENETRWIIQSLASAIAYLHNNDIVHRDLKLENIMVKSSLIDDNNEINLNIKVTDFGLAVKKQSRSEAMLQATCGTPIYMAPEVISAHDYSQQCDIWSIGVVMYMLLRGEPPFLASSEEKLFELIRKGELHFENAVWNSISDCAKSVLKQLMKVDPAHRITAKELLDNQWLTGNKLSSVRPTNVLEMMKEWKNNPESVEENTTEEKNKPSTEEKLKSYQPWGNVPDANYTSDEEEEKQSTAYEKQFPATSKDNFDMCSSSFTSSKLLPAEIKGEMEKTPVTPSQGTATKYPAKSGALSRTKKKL
Procedure: as §1

STK36 = STK36 (Homo sapiens, UniProt Q9NRP7)
Procedure: as §1

TEC = TEC (Homo sapiens, UniProt P42680)
Procedure: as §1

TNNI3K = TNNI3K (Homo sapiens, UniProt Q59H18)
Chain of TNNI3K (Q59H18 whole entry): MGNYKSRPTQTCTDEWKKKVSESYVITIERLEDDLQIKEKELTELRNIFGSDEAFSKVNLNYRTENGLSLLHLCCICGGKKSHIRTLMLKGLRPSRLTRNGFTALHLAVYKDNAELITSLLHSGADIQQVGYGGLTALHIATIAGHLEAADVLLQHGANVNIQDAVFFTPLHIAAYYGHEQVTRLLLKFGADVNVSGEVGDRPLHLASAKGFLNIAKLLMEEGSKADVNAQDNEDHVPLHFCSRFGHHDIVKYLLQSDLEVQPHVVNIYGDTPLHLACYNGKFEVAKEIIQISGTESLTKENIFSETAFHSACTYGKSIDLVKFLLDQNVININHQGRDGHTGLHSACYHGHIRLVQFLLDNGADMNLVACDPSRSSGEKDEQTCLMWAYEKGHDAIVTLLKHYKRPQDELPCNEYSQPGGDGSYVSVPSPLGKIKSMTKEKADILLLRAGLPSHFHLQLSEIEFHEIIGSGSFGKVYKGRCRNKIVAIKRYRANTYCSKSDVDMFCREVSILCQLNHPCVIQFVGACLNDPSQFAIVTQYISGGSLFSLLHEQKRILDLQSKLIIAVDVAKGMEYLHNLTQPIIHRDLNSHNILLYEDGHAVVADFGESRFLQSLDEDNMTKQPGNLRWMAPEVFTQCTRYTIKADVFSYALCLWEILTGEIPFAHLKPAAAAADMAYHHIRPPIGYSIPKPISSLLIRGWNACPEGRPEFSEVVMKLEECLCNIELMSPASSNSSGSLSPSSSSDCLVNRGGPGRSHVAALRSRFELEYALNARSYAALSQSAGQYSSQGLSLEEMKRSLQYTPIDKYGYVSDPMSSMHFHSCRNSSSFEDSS
Procedure: as §1

Question: How did the receptor occupancy at 1 µM (CDK15) turn out when CN1C(=O)[C@@H](N2CCc3c(nn(Cc4ccccc4)c3C(N)=O)C2=O)COc2cc(Cl)ccc21 [Compound 10, (S)-2-benzyl-6-(8-chloro-5-methyl-4-oxo-2,3,4,5-tetrahydrobenzo[b][1,4]oxazepin-3-yl)-7-oxo-4,5,6,7-tetrahydro-2H-pyrazolo[3,4-c]pyridine-3-carboxamide] was run?
Answer: -12.8%

Question: And the receptor occupancy at 1 µM (CDK16)?
Answer: -2.19%

Question: And the receptor occupancy at 1 µM (CDK6)?
Answer: -16.9%

Question: And the receptor occupancy at 1 µM (CDKL1)?
Answer: 12.6%

Question: And the receptor occupancy at 1 µM (CDKL2)?
Answer: -3.58%

Question: And the receptor occupancy at 1 µM (CSNK2A1)?
Answer: 3.96%

Question: And the receptor occupancy at 1 µM (CSNK2A2)?
Answer: 1.08%

Question: And the receptor occupancy at 1 µM (DCLK3)?
Answer: 2.41%

Question: And the receptor occupancy at 1 µM (DYRK1A)?
Answer: -1.01%

Question: And the receptor occupancy at 1 µM (EPHA1)?
Answer: 2.07%

Question: And the receptor occupancy at 1 µM (FGFR4)?
Answer: 5%

Question: What about the receptor occupancy at 1 µM (GAK) of the same molecule?
Answer: 0.954%

Question: And the receptor occupancy at 1 µM (IRAK3)?
Answer: -5.37%

Question: And the receptor occupancy at 1 µM (MAP3K19)?
Answer: 10.7%

Question: And the receptor occupancy at 1 µM (MAP3K2)?
Answer: -2.55%

Question: And the receptor occupancy at 1 µM (MAP3K3)?
Answer: 5.83%

Question: And the receptor occupancy at 1 µM (MAP4K2)?
Answer: -0.43%

Question: What about the receptor occupancy at 1 µM (MAP4K3) of the same molecule?
Answer: -3.75%

Question: What about the receptor occupancy at 1 µM (MAP4K5) of the same molecule?
Answer: 16.7%

Question: What about the receptor occupancy at 1 µM (MAPK11) of the same molecule?
Answer: -1.99%

Question: And the receptor occupancy at 1 µM (MAPK14)?
Answer: 4.38%

Question: What about the receptor occupancy at 1 µM (MAPK9) of the same molecule?
Answer: -2.07%

Question: And the receptor occupancy at 1 µM (MAST3)?
Answer: 3.64%

Question: What about the receptor occupancy at 1 µM (MERTK) of the same molecule?
Answer: 0.31%

Question: What about the receptor occupancy at 1 µM (MET) of the same molecule?
Answer: 4.93%

Question: And the receptor occupancy at 1 µM (MUSK)?
Answer: -11.5%

Question: What about the receptor occupancy at 1 µM (NTRK2) of the same molecule?
Answer: 1.19%

Question: What about the receptor occupancy at 1 µM (NUAK1) of the same molecule?
Answer: -4.45%

Question: What about the receptor occupancy at 1 µM (PRKAA2) of the same molecule?
Answer: 2.71%

Question: What about the receptor occupancy at 1 µM (PRKACA) of the same molecule?
Answer: -2.16%

Question: And the receptor occupancy at 1 µM (PRKX)?
Answer: 2.51%

Question: And the receptor occupancy at 1 µM (PTK6)?
Answer: 2.55%

Question: What about the receptor occupancy at 1 µM (STK32B) of the same molecule?
Answer: -4.21%

Question: And the receptor occupancy at 1 µM (STK33)?
Answer: 3.58%

Question: What about the receptor occupancy at 1 µM (STK36) of the same molecule?
Answer: -3.44%

Question: And the receptor occupancy at 1 µM (TEC)?
Answer: -0.614%

Question: And the receptor occupancy at 1 µM (TNNI3K)?
Answer: -0.0649%
